In patent US20180273507A1, “CRYSTAL FORMS OF A M1 RECEPTOR POSITIVE ALLOSTERIC MODULATOR” (Merck Sharp & Dohme Corp., priority 2015, published 2018):

Experiment: Base catalyzed hydrolysis forced degradation, HPLC monitored
Details: basic conditions (0.1 N), 24 hours
Experimental: The experiment was conducted on a sample stored at room/ambient temperature and another sample maintained at 60° C.

degradation / loss under basic conditions (60° C.): 1.4%
degradation / loss under basic conditions (ambient temperature): 0.2%
SMILES: Cc1ccc(Cc2cc3c(=O)n([C@H]4CCCC[C@@H]4O)cnc3c3ccccc23)cn1.O=C(O)/C=C/C(=O)O [3-[(1S,2S)-2-Hydroxycyclohexyl]-6-[(6-methyl-3-pyridinyl)methyl]benzo-[h]quinazolin-4(3H)-one (2E)-2-butenedioate]
